Data on one molecule can be found in BindingDB's records for PubMed 11356907 (Institut De Recherches Servier, 2001).

The target in assay [1] is T1, Amine oxidase [flavin-containing] B (Rattus norvegicus, UniProt P19643).
T1 sequence (P19643 whole entry): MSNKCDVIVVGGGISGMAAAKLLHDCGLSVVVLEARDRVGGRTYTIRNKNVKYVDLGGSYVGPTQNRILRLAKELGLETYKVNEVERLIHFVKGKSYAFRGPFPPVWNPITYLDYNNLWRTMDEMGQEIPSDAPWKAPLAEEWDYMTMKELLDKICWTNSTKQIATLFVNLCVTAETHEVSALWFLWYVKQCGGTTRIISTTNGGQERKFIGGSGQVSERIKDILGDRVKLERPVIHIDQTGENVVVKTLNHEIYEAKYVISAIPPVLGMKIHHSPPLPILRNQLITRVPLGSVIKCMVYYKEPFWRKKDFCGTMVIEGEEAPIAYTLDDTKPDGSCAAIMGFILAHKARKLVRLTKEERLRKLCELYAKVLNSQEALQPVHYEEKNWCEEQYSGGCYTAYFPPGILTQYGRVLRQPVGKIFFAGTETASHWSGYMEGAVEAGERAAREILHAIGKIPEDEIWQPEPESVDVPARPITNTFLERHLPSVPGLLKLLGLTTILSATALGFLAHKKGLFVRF

The target in assay [2] is D(2) dopamine receptor (Rattus norvegicus, UniProt P61169).
The target in assay [3] is T2, Alpha-1A adrenergic receptor (Homo sapiens, UniProt P35348).
T2 sequence (P35348 whole entry): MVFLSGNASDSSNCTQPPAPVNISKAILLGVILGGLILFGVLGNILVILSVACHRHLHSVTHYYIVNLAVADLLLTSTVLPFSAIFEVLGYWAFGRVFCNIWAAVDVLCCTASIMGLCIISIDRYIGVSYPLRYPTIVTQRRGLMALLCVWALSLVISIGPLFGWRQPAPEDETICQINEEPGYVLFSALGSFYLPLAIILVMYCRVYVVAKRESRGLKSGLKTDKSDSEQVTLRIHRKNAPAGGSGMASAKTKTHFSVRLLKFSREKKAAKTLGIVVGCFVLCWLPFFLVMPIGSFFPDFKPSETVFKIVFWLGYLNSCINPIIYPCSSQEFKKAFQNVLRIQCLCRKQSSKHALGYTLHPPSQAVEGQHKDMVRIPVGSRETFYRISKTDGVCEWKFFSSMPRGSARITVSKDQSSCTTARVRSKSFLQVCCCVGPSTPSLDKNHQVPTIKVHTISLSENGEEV

Assay [4] deals with T3, Alpha-2C adrenergic receptor (Homo sapiens, UniProt P18825).
T3 sequence (P18825 whole entry): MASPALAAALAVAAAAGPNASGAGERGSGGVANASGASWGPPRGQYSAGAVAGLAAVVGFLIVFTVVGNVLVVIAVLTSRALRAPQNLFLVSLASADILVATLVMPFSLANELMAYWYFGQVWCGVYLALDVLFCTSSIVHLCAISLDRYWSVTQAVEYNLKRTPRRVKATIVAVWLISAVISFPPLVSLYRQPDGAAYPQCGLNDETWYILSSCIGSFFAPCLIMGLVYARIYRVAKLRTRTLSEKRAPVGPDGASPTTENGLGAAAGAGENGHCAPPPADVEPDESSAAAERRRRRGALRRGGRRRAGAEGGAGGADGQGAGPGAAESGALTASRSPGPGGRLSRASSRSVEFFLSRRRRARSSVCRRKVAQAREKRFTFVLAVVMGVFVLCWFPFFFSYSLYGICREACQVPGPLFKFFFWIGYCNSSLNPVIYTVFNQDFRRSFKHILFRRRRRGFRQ

The target in assay [5] is T4, Alpha-1B adrenergic receptor (Homo sapiens, UniProt P35368).
T4 sequence (P35368 whole entry): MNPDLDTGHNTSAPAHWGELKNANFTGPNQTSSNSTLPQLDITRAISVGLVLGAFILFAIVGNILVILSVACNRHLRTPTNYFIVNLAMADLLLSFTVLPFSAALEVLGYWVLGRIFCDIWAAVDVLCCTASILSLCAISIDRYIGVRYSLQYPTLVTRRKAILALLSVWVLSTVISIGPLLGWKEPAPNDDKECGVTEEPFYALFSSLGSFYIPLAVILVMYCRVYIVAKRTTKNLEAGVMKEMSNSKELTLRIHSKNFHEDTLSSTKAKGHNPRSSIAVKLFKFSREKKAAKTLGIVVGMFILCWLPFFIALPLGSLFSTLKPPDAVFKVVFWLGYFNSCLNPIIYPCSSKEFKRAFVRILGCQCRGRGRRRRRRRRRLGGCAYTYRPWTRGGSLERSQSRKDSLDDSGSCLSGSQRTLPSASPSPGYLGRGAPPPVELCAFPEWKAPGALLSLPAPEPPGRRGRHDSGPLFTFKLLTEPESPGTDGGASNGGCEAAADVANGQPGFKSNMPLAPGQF

In assay [6] the target is T5, Amine oxidase [flavin-containing] A (Rattus norvegicus, UniProt P21396).
T5 sequence (P21396 whole entry): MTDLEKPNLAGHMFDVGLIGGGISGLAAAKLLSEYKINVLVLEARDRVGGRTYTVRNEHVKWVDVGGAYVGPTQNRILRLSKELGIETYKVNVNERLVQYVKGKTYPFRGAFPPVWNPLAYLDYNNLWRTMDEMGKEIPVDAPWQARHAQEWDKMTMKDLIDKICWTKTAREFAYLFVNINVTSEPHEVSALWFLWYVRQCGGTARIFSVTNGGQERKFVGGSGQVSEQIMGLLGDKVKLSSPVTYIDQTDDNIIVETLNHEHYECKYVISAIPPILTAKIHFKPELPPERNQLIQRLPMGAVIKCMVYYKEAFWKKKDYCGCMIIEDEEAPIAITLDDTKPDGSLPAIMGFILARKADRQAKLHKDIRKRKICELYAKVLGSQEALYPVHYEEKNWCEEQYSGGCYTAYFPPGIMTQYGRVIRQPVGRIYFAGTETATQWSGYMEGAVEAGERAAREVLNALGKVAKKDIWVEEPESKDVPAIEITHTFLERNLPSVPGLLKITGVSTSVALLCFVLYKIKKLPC

Assay [7] concerns the target Beta-2 adrenergic receptor (Homo sapiens, UniProt P07550).
The target of assay [8] is T6, Alpha-2C adrenergic receptor (Rattus norvegicus, UniProt P22086).
T6 sequence (P22086 whole entry): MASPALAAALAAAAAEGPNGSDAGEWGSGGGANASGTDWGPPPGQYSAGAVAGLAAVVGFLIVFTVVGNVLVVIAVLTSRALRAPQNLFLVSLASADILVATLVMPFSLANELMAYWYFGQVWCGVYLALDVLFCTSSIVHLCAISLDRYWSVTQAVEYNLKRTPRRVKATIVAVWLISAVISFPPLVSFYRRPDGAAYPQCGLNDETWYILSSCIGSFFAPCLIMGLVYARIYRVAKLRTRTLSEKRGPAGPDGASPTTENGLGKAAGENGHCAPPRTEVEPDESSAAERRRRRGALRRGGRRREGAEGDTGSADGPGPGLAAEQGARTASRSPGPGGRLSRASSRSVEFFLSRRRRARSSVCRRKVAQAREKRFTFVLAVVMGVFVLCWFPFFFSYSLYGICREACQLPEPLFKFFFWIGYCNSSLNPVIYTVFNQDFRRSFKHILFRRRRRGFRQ

Assay [9] concerns the target Norepinephrine transporter (Rattus norvegicus, UniProt Q9JIA2).
In assay [10] the target is D(2) dopamine receptor (Homo sapiens, UniProt P14416).
In assay [11] the target is Sodium-dependent noradrenaline transporter (Homo sapiens, UniProt P23975).
Assay [12] concerns the target T7, Alpha-2A adrenergic receptor (Homo sapiens, UniProt P08913).
T7 sequence (P08913 whole entry): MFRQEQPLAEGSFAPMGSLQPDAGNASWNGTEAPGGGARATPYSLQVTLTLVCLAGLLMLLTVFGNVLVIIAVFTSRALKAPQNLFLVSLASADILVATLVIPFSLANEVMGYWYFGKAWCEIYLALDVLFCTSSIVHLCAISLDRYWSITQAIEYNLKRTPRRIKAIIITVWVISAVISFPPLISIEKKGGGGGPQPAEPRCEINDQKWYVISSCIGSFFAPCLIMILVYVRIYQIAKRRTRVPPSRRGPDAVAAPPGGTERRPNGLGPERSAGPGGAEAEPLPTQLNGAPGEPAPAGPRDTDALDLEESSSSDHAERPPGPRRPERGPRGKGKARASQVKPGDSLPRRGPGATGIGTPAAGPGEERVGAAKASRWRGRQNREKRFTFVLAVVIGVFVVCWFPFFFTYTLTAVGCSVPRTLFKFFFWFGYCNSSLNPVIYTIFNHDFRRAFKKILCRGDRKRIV

The target in assay [13] is T8, Alpha-1D adrenergic receptor (Homo sapiens, UniProt P25100).
T8 sequence (P25100 whole entry): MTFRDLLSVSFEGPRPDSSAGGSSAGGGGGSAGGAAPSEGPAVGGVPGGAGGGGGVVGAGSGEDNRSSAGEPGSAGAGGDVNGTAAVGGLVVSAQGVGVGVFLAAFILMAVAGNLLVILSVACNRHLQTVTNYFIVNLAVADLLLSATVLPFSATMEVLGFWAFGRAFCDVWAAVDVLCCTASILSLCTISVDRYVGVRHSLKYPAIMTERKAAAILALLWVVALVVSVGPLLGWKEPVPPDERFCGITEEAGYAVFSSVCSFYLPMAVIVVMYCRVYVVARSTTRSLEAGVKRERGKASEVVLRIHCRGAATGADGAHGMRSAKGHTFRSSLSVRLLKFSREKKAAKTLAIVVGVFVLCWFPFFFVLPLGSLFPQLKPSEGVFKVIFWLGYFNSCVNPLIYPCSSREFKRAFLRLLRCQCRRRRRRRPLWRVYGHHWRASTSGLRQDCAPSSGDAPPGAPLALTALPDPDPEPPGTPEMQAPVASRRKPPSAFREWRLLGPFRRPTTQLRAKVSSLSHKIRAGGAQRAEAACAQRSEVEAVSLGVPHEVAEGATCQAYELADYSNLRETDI

Sequence of Sodium-dependent noradrenaline transporter (P23975 whole entry): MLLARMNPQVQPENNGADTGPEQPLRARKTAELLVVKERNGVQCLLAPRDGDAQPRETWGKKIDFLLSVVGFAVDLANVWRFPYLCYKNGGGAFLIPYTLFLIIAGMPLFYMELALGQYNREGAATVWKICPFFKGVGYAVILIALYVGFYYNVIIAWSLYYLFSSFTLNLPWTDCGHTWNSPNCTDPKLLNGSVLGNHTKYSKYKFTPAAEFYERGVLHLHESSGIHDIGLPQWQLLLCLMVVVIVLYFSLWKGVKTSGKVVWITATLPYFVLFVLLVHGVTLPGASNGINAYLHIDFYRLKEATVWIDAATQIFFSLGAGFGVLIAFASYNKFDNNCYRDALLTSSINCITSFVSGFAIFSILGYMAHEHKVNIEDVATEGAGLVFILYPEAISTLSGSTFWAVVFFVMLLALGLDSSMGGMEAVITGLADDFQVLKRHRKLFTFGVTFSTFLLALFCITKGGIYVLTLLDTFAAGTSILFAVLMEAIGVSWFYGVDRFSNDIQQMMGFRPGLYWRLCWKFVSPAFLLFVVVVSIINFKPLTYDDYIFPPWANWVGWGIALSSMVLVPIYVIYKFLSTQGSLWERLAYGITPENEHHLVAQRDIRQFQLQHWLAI
Sequence of Beta-2 adrenergic receptor (P07550 whole entry): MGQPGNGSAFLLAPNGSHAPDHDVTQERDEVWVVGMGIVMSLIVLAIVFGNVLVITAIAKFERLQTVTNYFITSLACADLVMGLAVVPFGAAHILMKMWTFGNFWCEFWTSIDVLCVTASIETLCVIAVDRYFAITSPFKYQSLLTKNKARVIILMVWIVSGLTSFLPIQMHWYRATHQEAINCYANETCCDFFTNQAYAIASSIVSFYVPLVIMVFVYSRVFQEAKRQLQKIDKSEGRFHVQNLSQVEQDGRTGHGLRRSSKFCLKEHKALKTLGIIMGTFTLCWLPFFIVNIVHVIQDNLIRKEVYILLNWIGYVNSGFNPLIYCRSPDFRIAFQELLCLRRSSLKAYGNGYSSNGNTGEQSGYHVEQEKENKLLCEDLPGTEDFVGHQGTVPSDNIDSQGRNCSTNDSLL
Sequence of D(2) dopamine receptor (Rattus norvegicus, UniProt P61169) (P61169 whole entry): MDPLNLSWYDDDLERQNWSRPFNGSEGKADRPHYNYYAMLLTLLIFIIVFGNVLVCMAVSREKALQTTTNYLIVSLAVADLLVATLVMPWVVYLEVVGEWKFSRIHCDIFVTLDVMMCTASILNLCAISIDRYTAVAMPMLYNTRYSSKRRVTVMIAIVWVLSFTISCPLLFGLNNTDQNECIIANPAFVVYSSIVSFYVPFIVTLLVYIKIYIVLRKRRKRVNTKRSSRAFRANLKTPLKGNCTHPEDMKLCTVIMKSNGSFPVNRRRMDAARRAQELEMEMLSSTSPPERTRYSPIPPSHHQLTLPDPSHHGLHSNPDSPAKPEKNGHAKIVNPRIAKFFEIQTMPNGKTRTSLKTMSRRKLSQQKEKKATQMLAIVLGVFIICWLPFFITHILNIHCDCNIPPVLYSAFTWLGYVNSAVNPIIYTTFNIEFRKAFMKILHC
Sequence of D(2) dopamine receptor (Homo sapiens, UniProt P14416) (P14416 whole entry): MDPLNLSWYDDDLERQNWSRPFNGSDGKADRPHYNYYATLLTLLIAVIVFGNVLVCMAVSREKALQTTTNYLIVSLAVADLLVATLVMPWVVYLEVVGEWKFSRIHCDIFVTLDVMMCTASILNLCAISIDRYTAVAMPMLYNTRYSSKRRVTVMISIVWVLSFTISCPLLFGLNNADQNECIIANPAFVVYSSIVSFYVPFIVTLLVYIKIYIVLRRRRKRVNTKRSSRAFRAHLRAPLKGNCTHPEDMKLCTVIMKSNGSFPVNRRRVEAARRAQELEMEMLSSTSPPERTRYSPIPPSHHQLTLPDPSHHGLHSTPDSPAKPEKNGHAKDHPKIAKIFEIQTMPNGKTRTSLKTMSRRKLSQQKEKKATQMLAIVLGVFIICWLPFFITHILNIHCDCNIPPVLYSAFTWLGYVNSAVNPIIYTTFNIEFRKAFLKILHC

Turning to `c1cnc(N2CCN(Cc3ccc4c(c3)OCO4)CC2)nc1` [NSC_4850], the Ki was over 10000 nM in [1]; 182 nM on D(2) dopamine receptor [2]; 813 nM in [3]; 69.2 nM in assay [4]; 6170 nM in [5]; over 10000 nM in assay [6]. Besides, the Ki is over 10000 nM in assay [7]; 437 nM in assay [8]; over 10000 nM in assay [9]; 132 nM on D(2) dopamine receptor [10]; over 10000 nM in assay [11]; 89.1 nM in [12]. Also, the affinity in assay [13] corresponds to a Ki of 219 nM.
